Assay results: patent publication US20250346600A1, “TRICYCLIC DERIVATIVES AND RELATED USES” (MOMA Therapeutics, Inc., priority 2023, published 2025)
Where two headings read alike, the source gives them in different places.

Experiments:
[1] = biological target: T1, Full length WRN protein (aa 2-1432) (Homo sapiens (Human), UniProt Q14191); assay: WRN ATPase ADP-Glo biochemical assay, Assay Format A (10 μM ATP); conditions: 0.25 nM WRN, 100 nM C6.18 ssDNA, 30 min preincubation, read-out: ATPase ADPGlo AC50 (uM)- Assay Format A
Method in brief: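 Sf9-expressed FLAG-AVI-TEV-tagged WRN (0.5 nM) preincubated 30 min with compound (11-point 3-fold dilution). Reaction started with 200 nM C6.18 39-mer ssDNA and 20 μM ATP (addition concentrations), run 30 min at room temperature. ADP measured by ADP-Glo luminescence; IC50 from four-parameter fit, geometric mean of ≥2 runs.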

[2] = biological target: T1, Full length WRN protein (aa 2-1432); assay: WRN ATPase ADP-Glo biochemical assay, Assay Format B (100 μM ATP); conditions: 0.25 nM WRN, 100 nM C6.18 ssDNA, 60 min preincubation, read-out: ATPase ADPGlo AC50 (uM)- Assay Format B
HCT116 cells = assay: HCT116 (MSI) 7 day viability, CellTiter Glo; format: cell-based; conditions: 7 days, read-out: HCT116 (MSI) Viability 7 Day Abs AC50
Method in brief: (§1)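 Seven-day viability is assessed with CellTiter Glo after compounds, diluted in ten 3-fold steps in DMSO, are exposed to HCT116 (50 cells/well) or HT29 (500 cells/well). Reported IC50 is the geometric mean of at least two independent runs.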

HT29 cells = assay: HT29 (MSS) 7 day viability, CellTiter Glo; format: cell-based; conditions: 7 days, read-out: HT29 (MSS) Viability 7 Day CTGAbs AC50
Method in brief: as §1

T1 sequence (Q14191 2-1432): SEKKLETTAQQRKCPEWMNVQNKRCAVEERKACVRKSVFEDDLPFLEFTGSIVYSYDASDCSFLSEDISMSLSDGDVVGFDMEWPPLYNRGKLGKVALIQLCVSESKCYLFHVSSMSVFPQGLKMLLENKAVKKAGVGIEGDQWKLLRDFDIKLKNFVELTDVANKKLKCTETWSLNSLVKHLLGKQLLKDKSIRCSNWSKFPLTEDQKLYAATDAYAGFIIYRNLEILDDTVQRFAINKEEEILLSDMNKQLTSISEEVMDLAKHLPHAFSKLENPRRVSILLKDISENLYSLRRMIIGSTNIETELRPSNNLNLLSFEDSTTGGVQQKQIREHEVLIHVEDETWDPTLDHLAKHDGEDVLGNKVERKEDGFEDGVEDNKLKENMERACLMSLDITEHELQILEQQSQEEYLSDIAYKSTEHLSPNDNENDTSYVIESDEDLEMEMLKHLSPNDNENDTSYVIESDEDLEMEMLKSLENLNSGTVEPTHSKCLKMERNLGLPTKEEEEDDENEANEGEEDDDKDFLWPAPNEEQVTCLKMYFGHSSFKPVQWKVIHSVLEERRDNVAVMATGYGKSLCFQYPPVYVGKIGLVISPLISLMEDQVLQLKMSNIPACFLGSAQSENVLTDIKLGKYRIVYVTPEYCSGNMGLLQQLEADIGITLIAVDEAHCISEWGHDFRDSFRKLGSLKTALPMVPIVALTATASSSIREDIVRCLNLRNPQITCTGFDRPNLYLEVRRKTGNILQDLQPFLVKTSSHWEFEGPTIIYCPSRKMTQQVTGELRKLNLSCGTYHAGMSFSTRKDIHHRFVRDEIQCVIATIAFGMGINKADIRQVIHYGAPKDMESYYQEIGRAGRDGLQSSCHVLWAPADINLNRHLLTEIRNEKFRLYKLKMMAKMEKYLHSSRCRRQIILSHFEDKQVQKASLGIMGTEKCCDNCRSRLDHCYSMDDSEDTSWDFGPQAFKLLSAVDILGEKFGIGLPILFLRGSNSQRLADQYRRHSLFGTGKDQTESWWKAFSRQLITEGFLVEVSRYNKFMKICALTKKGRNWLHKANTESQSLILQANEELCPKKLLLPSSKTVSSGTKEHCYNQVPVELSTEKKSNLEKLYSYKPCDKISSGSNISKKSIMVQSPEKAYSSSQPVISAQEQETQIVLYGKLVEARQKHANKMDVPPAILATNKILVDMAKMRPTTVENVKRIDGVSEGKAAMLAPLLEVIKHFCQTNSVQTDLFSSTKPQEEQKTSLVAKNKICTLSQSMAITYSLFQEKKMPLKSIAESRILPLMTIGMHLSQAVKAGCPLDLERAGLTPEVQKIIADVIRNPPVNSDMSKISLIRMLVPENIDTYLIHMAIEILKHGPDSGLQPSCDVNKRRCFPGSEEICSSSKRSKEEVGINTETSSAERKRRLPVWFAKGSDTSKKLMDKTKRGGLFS

Row | SMILES | AC50 [1] | AC50 [2] | AC50 (HCT116 cells; Homo sapiens, HCT-116, 168 h) | AC50 (HT29 cells; Homo sapiens, HT-29, 168 h) | AC50 (HCT116 cells) | AC50 (HT29 cells)
1 | C=CC(=O)N1CCc2nn(-c3ccc(C4CC4)cc3O)c3c2C(C1)N(C(=O)c1ccc(Br)c2[nH]c(C(F)F)nc12)CC3 (stereo not shown) [Compound 143, 1-(5-(7-bromo-2-(difluoromethyl)-1H-benzo[d]imidazole-4-carbonyl)-2-(4-cyclopropyl-2-hydroxyphenyl)-2,3,4,5,5a,6,8,9-octahydro-7H-1,2,5,7-tetraazabenzo[cd]azulen-7-yl)prop-2-en-1-one] | < 0.0015 µM | 0.005 to 0.015 µM | 0.001 to 0.1 µM | > 3 µM | – | –
2 | C=CC(=O)N1CCc2nn(-c3ccc(C4CCC4)cc3)c3c2C(C1)N(C(=O)c1ccc(Br)c2[nH]nc(N)c12)CC3 (stereo not shown) [Compound 158, 1-(5-(3-amino-7-bromo-1H-indazole-4-carbonyl)-2-(4-cyclobutylphenyl)-2,3,4,5,5a,6,8,9-octahydro-7H-1,2,5,7-tetraazabenzo[cd]azulen-7-yl)prop-2-en-1-one] | < 0.0015 µM | 0.0015 to 0.005 µM | 0.001 to 0.1 µM | > 3 µM | – | –
3 | C=CC(=O)N1CCc2nn(-c3ccc(C4CCC4)cc3O)c3c2C(C1)N(C(=O)c1ccc(C(F)(F)F)nc1)CC3 (stereo not shown) [Compound 96, 1-(2-(4-cyclobutyl-2-hydroxyphenyl)-5-(6-(trifluoromethyl)nicotinoyl)-2,3,4,5,5a,6,8,9-octahydro-7H-1,2,5,7-tetraazabenzo[cd]azulen-7-yl)prop-2-en-1-one] | < 0.0015 µM | 0.005 to 0.015 µM | 0.001 to 0.1 µM | > 3 µM | – | –
4 | C=CC(=O)N1CCc2nn(-c3ccc(C4CC4)cc3)c3c2C(C1)N(C(=O)c1cnc(C(C)(F)F)cc1N)CC3 (stereo not shown) [Compound 183, 1-(5-(4-amino-6-(1,1-difluoroethyl)nicotinoyl)-2-(4-cyclopropylphenyl)-2,3,4,5,5a,6,8,9-octahydro-7H-1,2,5,7-tetraazabenzo[cd]azulen-7-yl)prop-2-en-1-one] | < 0.0015 µM | 0.0015 to 0.005 µM | 0.001 to 0.1 µM | > 3 µM | – | –
5 | C=CC(=O)N1CCc2nn(-c3ccc(C(C)C)cc3)c3c2C(C1)N(C(=O)c1ccc(Br)c2[nH]c(N)nc12)CC3 (stereo not shown) [Compound 8, 1-(5-(2-amino-7-bromo-1H-benzo[d]imidazole-4-carbonyl)-2-(4-isopropylphenyl)-2,3,4,5,5a,6,8,9-octahydro-7H-1,2,5,7-tetraazabenzo[cd]azulen-7-yl)prop-2-en-1-one] | < 0.0015 µM | 0.005 to 0.015 µM | 0.001 to 0.1 µM | > 3 µM | – | –
6 | C=CC(=O)N1CCc2nn(-c3ccc(C(C)C)cc3O)c3c2C(C1)N(C(=O)c1ccc(Br)c2[nH]cnc12)CC3 (stereo not shown) [Compound 20, 1-(5-(7-bromo-1H-benzo[d]imidazole-4-carbonyl)-2-(2-hydroxy-4-isopropylphenyl)-2,3,4,5,5a,6,8,9-octahydro-7H-1,2,5,7-tetraazabenzo[cd]azulen-7-yl)prop-2-en-1-one] | < 0.0015 µM | 0.005 to 0.015 µM | 0.001 to 0.1 µM | > 3 µM | – | –
7 | C=CC(=O)N1CC(C)Oc2nn(-c3ccc(C(C)C)cc3)c3c2C(C1)N(C(=O)c1ccc(Br)c2[nH]cnc12)CC3 (stereo not shown) [Compound 53, 1-(5-(7-bromo-1H-benzo[d]imidazole-4-carbonyl)-2-(4-isopropylphenyl)-9-methyl-2,3,4,5,5a,6,8,9-octahydro-7H-10-oxa-1,2,5,7-tetraazacycloocta[cd]inden-7-yl)prop-2-en-1-one] | 0.015 to 0.055 µM | > 0.055 µM | – | – | 0.5 to 1 µM | > 3 µM

Second part, led by results:

Row | AC50 [1] | AC50 [2] | SMILES | AC50 (HCT116 cells; Homo sapiens, HCT-116, 168 h) | AC50 (HT29 cells; Homo sapiens, HT-29, 168 h) | AC50 (HCT116 cells) | AC50 (HT29 cells)
8 | < 0.0015 µM | 0.015 to 0.055 µM | C=CC(=O)N1CC(F)Oc2nn(-c3ccc(C(C)C)cc3)c3c2C(C1)N(C(=O)c1ccc(Br)c2[nH]cnc12)CC3 (stereo not shown) [Compound 55, 1-(5-(7-bromo-1H-benzo[d]imidazole-4-carbonyl)-9-fluoro-2-(4-isopropylphenyl)-2,3,4,5,5a,6,8,9-octahydro-7H-10-oxa-1,2,5,7-tetraazacycloocta[cd]inden-7-yl)prop-2-en-1-one] | – | – | 0.1 to 0.25 µM | > 3 µM
9 | < 0.0015 µM | 0.005 to 0.015 µM | C=CC(=O)N1CCc2nn(-c3ccc(C4CCC4)cc3O)c3c2C(C1)N(C(=O)c1ccc(Br)c2nc(CCO)[nH]c12)CC3 (stereo not shown) [Compound 148, 1-(5-(4-bromo-2-(2-hydroxyethyl)-1H-benzo[d]imidazole-7-carbonyl)-2-(4-cyclobutyl-2-hydroxyphenyl)-2,3,4,5,5a,6,8,9-octahydro-7H-1,2,5,7-tetraazabenzo[cd]azulen-7-yl)prop-2-en-1-one] | 0.001 to 0.1 µM | > 3 µM | – | –
10 | < 0.0015 µM | 0.005 to 0.015 µM | C=CC(=O)N1CCc2nn(-c3ccc(C4CC4)cc3O)c3c2C(C1)N(C(=O)c1ccc(Cl)nc1N)CC3 (stereo not shown) [Compound 199, 1-(5-(2-amino-6-chloronicotinoyl)-2-(4-cyclopropyl-2-hydroxyphenyl)-2,3,4,5,5a,6,8,9-octahydro-7H-1,2,5,7-tetraazabenzo[cd]azulen-7-yl)prop-2-en-1-one] | 0.001 to 0.1 µM | > 3 µM | – | –
11 | 0.0015 to 0.005 µM | 0.015 to 0.055 µM | C=CC(=O)N1CCOc2nn(-c3ccc(C(C)C)cc3)c3c2C(C1)N(C(=O)c1ccc(Br)c2[nH]cnc12)CC3 (stereo not shown) [Compound 46, 1-(5-(7-bromo-1H-benzo[d]imidazole-4-carbonyl)-2-(4-isopropylphenyl)-2,3,4,5,5a,6,8,9-octahydro-7H-10-oxa-1,2,5,7-tetraazacycloocta[cd]inden-7-yl)prop-2-en-1-one] | 0.001 to 0.1 µM | > 3 µM | – | –
12 | < 0.0015 µM | 0.0015 to 0.005 µM | C=CC(=O)N1CCc2nn(-c3ccc(C4CCC4)cc3O)c3c2C(C1)N(C(=O)c1cnc(Cl)cc1N)CC3 (stereo not shown) [Compound 144, 1-(5-(4-amino-6-chloronicotinoyl)-2-(4-cyclobutyl-2-hydroxyphenyl)-2,3,4,5,5a,6,8,9-octahydro-7H-1,2,5,7-tetraazabenzo[cd]azulen-7-yl)prop-2-en-1-one] | 0.001 to 0.1 µM | > 3 µM | – | –
13 | 0.0015 to 0.005 µM | 0.015 to 0.055 µM | C=CC(=O)N1CCc2nn(-c3ccc(C(C)C)cc3)c3c2C(C1)N(C(=O)c1cnc(C(F)(F)F)c(OCC(N)=O)c1)CC3 (stereo not shown) [Compound 59, 2-((5-(7-acryloyl-2-(4-isopropylphenyl)-3,4,5,5a,6,7,8,9-octahydro-2H-1,2,5,7-tetraazabenzo[cd]azulene-5-carbonyl)-2-(trifluoromethyl)pyridin-3-yl)oxy)acetamide] | 0.1 to 0.25 µM | > 3 µM | – | –
